Source: ChEMBL document CHEMBL1201862, “PubChem BioAssay data set” (2004)
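Growth conditions: 96-well plates. Treatment: test compound, 48 hours, 5 concentrations. Analysis: linear interpolation between bracketing concentrations; unreached endpoints set to highest concentration. GI50: concentration for 50% inhibition of growth.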 Active and inactive are the calls of the source. No stated cut-off is given here; in the data, active = GI50 up to about 1.1 µM and inactive = higher.

Assays:
Assay in all cases: inhibition of tumour cell growth, NCI panel, 48 h
KM-20L2 = test system: KM-20L2
HL-60 = test system: HL-60
DMS-273 = test system: DMS-273
SNB-75 = test system: SNB-75
NCI-H23 = test system: NCI-H23
NCI-H522 = test system: NCI-H522
EKVX = test system: EKVX
RXF 393 = test system: RXF 393
M19-MEL = test system: M19-MEL
SF-295 = test system: SF-295
TK-10 = test system: TK-10
786-0 = test system: 786-0
Malme-3M = test system: Malme-3M
OVCAR-4 = test system: OVCAR-4
MOLT-4 = test system: MOLT-4
OVCAR-5 = test system: OVCAR-5
SF-268 = test system: SF-268
XF498 = test system: XF498
SF-539 = test system: SF-539
HOP-18 = test system: HOP-18
SK-MEL-2 = test system: SK-MEL-2
U-251 = test system: U-251
ACHN = test system: ACHN
SK-MEL-5 = test system: SK-MEL-5
HOP-92 = test system: HOP-92
SK-MEL-28 = test system: SK-MEL-28
DMS-114 = test system: DMS-114
A498 = test system: A498
HT-29 = test system: HT-29
HCT-116 = test system: HCT-116
OVCAR-8 = test system: OVCAR-8
KM12 = test system: KM12
CCRF-CEM = test system: CCRF-CEM
HCC 2998 = test system: HCC 2998
DLD-1 = test system: DLD-1
SNB-78 = test system: SNB-78
NCI-H460 = test system: NCI-H460
SR = test system: SR
UACC-257 = test system: UACC-257
SW-620 = test system: SW-620
RPMI-8226 = test system: RPMI-8226
LXFL 529 = test system: LXFL 529
SN12C = test system: SN12C
HOP-62 = test system: HOP-62
K562 = test system: K562
LOX IMVI = test system: LOX IMVI
UO-31 = test system: UO-31
M14 = test system: M14
SK-OV-3 = test system: SK-OV-3
A549 = test system: A549
UACC-62 = test system: UACC-62
HCT-15 = test system: HCT-15
CAKI-1 = test system: CAKI-1
IGROV-1 = test system: IGROV-1
SNB-19 = test system: SNB-19
NCI-H226 = test system: NCI-H226
OVCAR-3 = test system: OVCAR-3
RXF 631 = test system: RXF 631
COLO 205 = test system: COLO 205

CCCCCCCCCCCCNC(=S)OC
GI50 (KM-20L2): 16.3 µM (inactive) | GI50 (HL-60): 10.5 µM (inactive) | GI50 (DMS-273): 15.4 µM (inactive) | GI50 (SNB-75): 16.8 µM (inactive) | GI50 (NCI-H23): 17.8 µM (inactive) | GI50 (NCI-H522): 13.2 µM (inactive) | GI50 (EKVX): 20.7 µM (inactive) | GI50 (RXF 393): 12.8 µM (inactive) | GI50 (M19-MEL): 17.9 µM (inactive) | GI50 (SF-295): 19.4 µM (inactive) | GI50 (TK-10): 19.5 µM (inactive) | GI50 (786-0): 15.8 µM (inactive) | GI50 (Malme-3M): 15.5 µM (inactive) | GI50 (OVCAR-4): 19.4 µM (inactive) | GI50 (MOLT-4): 2.16 µM (inactive) | GI50 (OVCAR-5): 16.3 µM (inactive) | GI50 (SF-268): 16.6 µM (inactive) | GI50 (XF498): 16.6 µM (inactive) | GI50 (SF-539): 17 µM (inactive) | GI50 (HOP-18): 17 µM (inactive) | GI50 (SK-MEL-2): 16.8 µM (inactive) | GI50 (U-251): 16 µM (inactive) | GI50 (ACHN): 17.9 µM (inactive) | GI50 (SK-MEL-5): 17.3 µM (inactive) | GI50 (HOP-92): 7.08 µM (inactive) | GI50 (SK-MEL-28): 16.9 µM (inactive) | GI50 (DMS-114): 4.63 µM (inactive) | GI50 (A498): 16.9 µM (inactive) | GI50 (HT-29): 16.7 µM (inactive) | GI50 (HCT-116): 15.4 µM (inactive) | GI50 (OVCAR-8): 15.8 µM (inactive) | GI50 (KM12): 15.4 µM (inactive) | GI50 (CCRF-CEM): 10.5 µM (inactive) | GI50 (HCC 2998): 18.2 µM (inactive) | GI50 (DLD-1): 15 µM (inactive) | GI50 (SNB-78): 21.5 µM (inactive) | GI50 (NCI-H460): 17.3 µM (inactive) | GI50 (SR): 3.01 µM (inactive) | GI50 (UACC-257): 16.7 µM (inactive) | GI50 (SW-620): 16.6 µM (inactive) | GI50 (RPMI-8226): 7.98 µM (inactive) | GI50 (LXFL 529): 14.8 µM (inactive) | GI50 (SN12C): 14.3 µM (inactive) | GI50 (HOP-62): 18 µM (inactive) | GI50 (K562): 17.5 µM (inactive) | GI50 (LOX IMVI): 15.2 µM (inactive) | GI50 (UO-31): 4.13 µM (inactive) | GI50 (M14): 17.3 µM (inactive) | GI50 (SK-OV-3): 16 µM (inactive) | GI50 (A549): 17.5 µM (inactive) | GI50 (UACC-62): 16.1 µM (inactive) | GI50 (HCT-15): 14.6 µM | GI50 (CAKI-1): 14.8 µM (inactive) | GI50 (IGROV-1): 11.5 µM (inactive) | GI50 (SNB-19): 24.7 µM (inactive)

N#C/C(=C\c1ccc2ccccc2c1)c1ccccc1
GI50 (KM-20L2): 15.6 µM (inactive) | GI50 (DMS-273): 14 µM (inactive) | GI50 (SNB-75): 23.2 µM (inactive) | GI50 (NCI-H23): > 100 µM (inactive) | GI50 (NCI-H522): 12 µM (inactive) | GI50 (RXF 393): 38.8 µM (inactive) | GI50 (M19-MEL): 26.6 µM (inactive) | GI50 (SF-295): 20.2 µM (inactive) | GI50 (TK-10): 34.3 µM (inactive) | GI50 (786-0): 18.9 µM (inactive) | GI50 (OVCAR-4): 29.6 µM (inactive) | GI50 (MOLT-4): 39.5 µM (inactive) | GI50 (OVCAR-5): 98.2 µM (inactive) | GI50 (SF-268): 39.6 µM (inactive) | GI50 (SF-539): 17.3 µM (inactive) | GI50 (HOP-18): 22.1 µM (inactive) | GI50 (SK-MEL-2): 25.8 µM (inactive) | GI50 (NCI-H226): 53.2 µM (inactive) | GI50 (U-251): 23 µM (inactive) | GI50 (ACHN): 18.7 µM (inactive) | GI50 (SK-MEL-5): 16.7 µM (inactive) | GI50 (HOP-92): 65.9 µM (inactive) | GI50 (SK-MEL-28): 45.4 µM (inactive) | GI50 (A498): 23.6 µM (inactive) | GI50 (HT-29): 26.7 µM (inactive) | GI50 (HCT-116): 30.3 µM (inactive) | GI50 (OVCAR-8): 32.4 µM (inactive) | GI50 (KM12): 27.7 µM (inactive) | GI50 (CCRF-CEM): 32.5 µM (inactive) | GI50 (HCC 2998): 21.7 µM (inactive) | GI50 (DLD-1): 25.7 µM (inactive) | GI50 (SNB-78): 28.1 µM (inactive) | GI50 (NCI-H460): 17.1 µM (inactive) | GI50 (SR): 46.8 µM (inactive) | GI50 (OVCAR-3): 13 µM (inactive) | GI50 (UACC-257): 25.5 µM (inactive) | GI50 (SW-620): 28.8 µM (inactive) | GI50 (RPMI-8226): 53.1 µM (inactive) | GI50 (LXFL 529): 29.4 µM (inactive) | GI50 (SN12C): 39.8 µM (inactive) | GI50 (HOP-62): 26.6 µM (inactive) | GI50 (LOX IMVI): 53.3 µM (inactive) | GI50 (UO-31): 25.5 µM (inactive) | GI50 (RXF 631): 30.5 µM (inactive) | GI50 (COLO 205): 17.8 µM (inactive) | GI50 (M14): 19.5 µM (inactive) | GI50 (SK-OV-3): 26.3 µM (inactive) | GI50 (UACC-62): 13.1 µM (inactive) | GI50 (HCT-15): 23.6 µM | GI50 (CAKI-1): 17.8 µM (inactive) | GI50 (IGROV-1): 14.9 µM (inactive)
